Test results from US20230391781A1, “MALT1 MODULATORS AND USES THEREOF” (Rheos Medicines, Inc., priority 2020, published 2023).
Structures can show the parent of a compound that is named as a salt.

Experiments:
[1] = target: full length MALT1 (Homo sapiens (Human), UniProt Q9UDY8); test: MALT1 Biochemical Assay; details: 15 nM enzyme, 30 μM peptide substrate Ac-Leu-Arg-Ser-Arg-Rh110-dPro, 30 min pre-incubation, 60 min reaction; mean value if tested more than once
Description: Inhibitor potency was evaluated by measuring enzymatic activity of full length MALT1 at varying concentrations of compound. The enzymatic assay consists of a single substrate reaction that monitors the release of a fluorescent dye upon cleavage of the peptide substrate. […] The assay buffer consists of 50 mM Hepes, pH 7.5, 0.8 M sodium citrate, 1 mM DTT, 0.004% tween-20, and 0.005% bovine serum albumin (BSA). […] The reaction was quenched after 60 minutes with the addition of iodoacetate at a final concentration of 10 mM. Total fluorescence was measured using an Envision (PerkinElmer) with fluorescence excitation at 485 nm and emission at […].
For potency determination, 1 μL of serially diluted compound (in 100% DMSO) was pre-incubated with 40 μL of enzyme for 30 minutes. The reaction was initiated with the addition of 10 μL of peptide substrate. The relative fluorescence units were transformed to percent inhibition by using 0% and 100% inhibition controls as reference. […] IC50 values were calculated by fitting the concentration-response curves to a four-parameter logistic equation in GraphPad Prism.

[2] = system: IL-2 in Jurkat (ATCC, clone E6.1) cells stimulated with anti-CD3/28/2; test: Jurkat IL-2 Assay; assay type: cell-based; details: Homo sapiens; IL-2 inhibition, Jurkat cells, 30 min compound then anti-CD3/28/2 stimulation for 24 hours; mean value if tested more than once; read-out: IC50
Description: Inhibition was determined in a cell-based assay using Jurkat (ATCC, clone E6.1), an immortalized T-cell line, exposed to a dose response of compound and assessed for viability, and Il-2 inhibition by ELISA. Cells were cultured in RPMI/10% FBS (Invitrogen 11875093, Atlanta Biologicals S12450H), maintained below 3E6/mL and only used in assays while below passage 25. Compounds were stamped by ECHO onto 384w plates (PerkinElmer Culturplate, 6007680). The cells were plated in fresh media on top of compound and incubated for 30 minutes before stimulation with soluble anti-CD3/28/2 (Stemcell, 10970) for 24 hours. Supernatant was collected and assessed for Il-2 (MSD, 384w, L21SA-1). To assess viability of cells treated with compound, cells were lysed with CTG reagent (Promega, G7570), and measured by luminometer. […] IC50s calculated using 4-parameter fit in GraphPad Prism.
In this table, “A” indicates IC50 of less than 0.1 μM; “B” indicates IC50 from 0.1 μM up to 1 μM; and “C” indicates IC50 of greater than 1 μM. “N/A” indicates not tested. For a compound that was tested in more than one experiment, the result shown represents the mean value.

full length MALT1, sequence (Q9UDY8 whole entry): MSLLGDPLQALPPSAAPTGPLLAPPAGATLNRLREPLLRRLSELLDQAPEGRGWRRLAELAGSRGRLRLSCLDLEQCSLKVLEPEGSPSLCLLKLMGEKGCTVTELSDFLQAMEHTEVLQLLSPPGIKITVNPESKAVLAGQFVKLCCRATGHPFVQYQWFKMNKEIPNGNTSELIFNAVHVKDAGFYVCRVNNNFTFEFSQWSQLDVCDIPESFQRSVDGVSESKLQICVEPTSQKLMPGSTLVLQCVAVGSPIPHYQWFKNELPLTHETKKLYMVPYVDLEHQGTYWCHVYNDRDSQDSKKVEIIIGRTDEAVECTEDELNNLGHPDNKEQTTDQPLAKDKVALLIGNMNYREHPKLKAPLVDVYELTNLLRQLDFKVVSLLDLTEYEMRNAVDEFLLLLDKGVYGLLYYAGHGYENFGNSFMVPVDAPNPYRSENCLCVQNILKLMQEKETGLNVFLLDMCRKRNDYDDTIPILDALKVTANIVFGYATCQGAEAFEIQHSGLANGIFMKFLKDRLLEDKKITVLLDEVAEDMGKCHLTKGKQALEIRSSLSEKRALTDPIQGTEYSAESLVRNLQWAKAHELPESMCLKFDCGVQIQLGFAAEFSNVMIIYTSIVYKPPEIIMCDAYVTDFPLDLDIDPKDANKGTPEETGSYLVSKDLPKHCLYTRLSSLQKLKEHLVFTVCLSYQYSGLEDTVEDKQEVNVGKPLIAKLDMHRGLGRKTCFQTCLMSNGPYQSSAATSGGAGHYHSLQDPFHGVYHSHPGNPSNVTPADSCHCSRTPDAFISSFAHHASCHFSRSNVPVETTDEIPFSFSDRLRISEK

| SMILES | IC50 [1] [nM] | IC50 [2] [nM] |
| --- | --- | --- |
| CO[C@@H](C)c1c(Nc2ccc([C@H](N(C)C(=O)C3CCCN(S(C)(=O)=O)C3)C(F)(F)F)cc2)cnc2nc(Cl)nn12 (stereo partly drawn) [Compound 3.7, N-[(1S)-1-[4-({2-chloro-7-[(1S)-1-methoxyethyl]-[1,2,4]triazolo[1,5-a]pyrimidin-6-yl}amino)phenyl]-2,2,2-trifluoroethyl]-1-methanesulfonyl-N-methylpiperidine-3-carboxamide] | 100 to 1000 | > 1000 |
| CO[C@@H](C)c1c(Nc2ccc([C@H](N(C)C(=O)C3CCN(C(C)=O)C3)C(F)(F)F)cc2)cnc2nc(Cl)nn12 (stereo partly drawn) [Compound 3.8, 1-acetyl-N-[(1S)-1-[4-({2-chloro-7-[(1S)-1-methoxyethyl]-[1,2,4]triazolo[1,5-a]pyrimidin-6-yl}amino)phenyl]-2,2,2-trifluoroethyl]-N-methylpyrrolidine-3-carboxamide] | 100 to 1000 | > 1000 |
| CNC(=O)N1CCC(C(=O)N(C)[C@@H](c2ccc(Nc3cnc4nc(Cl)nn4c3[C@H](C)OC)cc2)C(F)(F)F)C1 (stereo partly drawn) [Compound 3.9, N3-[(1S)-1-[4-({2-chloro-7-[(1S)-1-methoxyethyl]-[1,2,4]triazolo[1,5-a]pyrimidin-6-yl}amino)phenyl]-2,2,2-trifluoroethyl]-N1,N3-dimethylpyrrolidine-1,3-dicarboxamide] | < 100 | 100 to 1000 |
| CO[C@@H](C)c1c(Nc2ccc([C@H](N(C)C(=O)C3CCC(CNC(C)=O)CC3)C(F)(F)F)cc2)cnc2nc(Cl)nn12 (stereo partly drawn) [Compound 3.11, N-[(1S)-1-[4-({2-chloro-7-[(1S)-1-methoxyethyl]-[1,2,4]triazolo[1,5-a]pyrimidin-6-yl}amino)phenyl]-2,2,2-trifluoroethyl]-4-(acetamidomethyl)-N-methylcyclohexane-1-carboxamide] | < 100 | 100 to 1000 |
| COC(=O)NCC1CCC(C(=O)N(C)[C@@H](c2ccc(Nc3cnc4nc(Cl)nn4c3[C@H](C)OC)cc2)C(F)(F)F)CC1 (stereo partly drawn) [Compound 3.12, methyl N-[(4-{[(1S)-1-[4-({2-chloro-7-[(1S)-1-methoxyethyl]-[1,2,4]triazolo[1,5-a]pyrimidin-6-yl}amino)phenyl]-2,2,2-trifluoroethyl](methyl)carbamoyl}cyclohexyl)methyl]carbamate] | < 100 | 100 to 1000 |
| CO[C@@H](C)c1c(Nc2ccc([C@H](N(C)C(=O)C3CCCN(C(=O)C4CC4)C3)C(F)(F)F)cc2)cnc2nc(Cl)nn12 (stereo partly drawn) [Compound 4.2, N-[(1S)-1-[4-({2-chloro-7-[(1S)-1-methoxyethyl]-[1,2,4]triazolo[1,5-a]pyrimidin-6-yl}amino)phenyl]-2,2,2-trifluoroethyl]-1-cyclopropanecarbonyl-N-methylpiperidine-3-carboxamide] | 100 to 1000 | 100 to 1000 |
| CO[C@@H](C)c1c(Nc2ccc([C@H](N(C)C(=O)C3CCN(C(=O)C4CC4)C3)C(F)(F)F)cc2)cnc2nc(Cl)nn12 (stereo partly drawn) [Compound 4.3, N-[(1S)-1-[4-({2-chloro-7-[(1S)-1-methoxyethyl]-[1,2,4]triazolo[1,5-a]pyrimidin-6-yl}amino)phenyl]-2,2,2-trifluoroethyl]-1-cyclopropanecarbonyl-N-methylpyrrolidine-3-carboxamide] | < 100 | 100 to 1000 |
| CO[C@@H](C)c1c(Nc2ccc([C@H](N(C)C(=O)C3CCCN(C)C3)C(F)(F)F)cc2)cnc2nc(Cl)nn12 (stereo partly drawn) [Compound 5.2, N—((S)-1-(4-((2-chloro-7-((S)-1-methoxyethyl)-[1,2,4]triazolo[1,5-a]pyrimidin-6-yl)amino)phenyl)-2,2,2-trifluoroethyl)-N,1-dimethylpiperidine-3-carboxamide] | 100 to 1000 | > 1000 |
| CO[C@@H](C)c1c(Nc2ccc([C@H](N(C)C(=O)C3CCN(C)C3)C(F)(F)F)cc2)cnc2nc(Cl)nn12 (stereo partly drawn) [Compound 5.3, N-[(1S)-1-[4-({2-chloro-7-[(1S)-1-methoxyethyl]-[1,2,4]triazolo[1,5-a]pyrimidin-6-yl}amino)phenyl]-2,2,2-trifluoroethyl]-N,1-dimethylpyrrolidine-3-carboxamide hydrochloride] | 100 to 1000 | > 1000 |
| CO[C@@H](C)c1c(Nc2ccc([C@H](N(C)C(=O)[C@H]3CC[C@H](O)CC3)C(F)(F)F)cc2)cnc2nc(Cl)nn12 [Compound 6.1, (1r,4S)—N—((S)-1-(4-((2-chloro-7-((S)-1-methoxyethyl)-[1,2,4]triazolo[1,5-a]pyrimidin-6-yl)amino)phenyl)-2,2,2-trifluoroethyl)-4-hydroxy-N-methylcyclohexane-1-carboxamide] | < 100 | 100 to 1000 |
| CC(C)c1c(Nc2ccc([C@H](N(C)C(=O)[C@H]3CC[C@H](C(=O)O)CC3)C(F)(F)F)cc2)cnc2nc(Cl)nn12 [Compound 7.2, (1S,4r)-4-(((S)-1-(4-((2-chloro-7-isopropyl-[1,2,4]triazolo[1,5-a]pyrimidin-6-yl)amino)phenyl)-2,2,2-trifluoroethyl)(methyl)carbamoyl)cyclohexane-1-carboxylic acid ammonia salt] | < 100 | 100 to 1000 |
| CO[C@@H](C)c1c(Nc2ccc([C@H](N(C)C(=O)[C@H]3C[C@H](C(=O)O)C3)C(F)(F)F)cc2)cnc2nc(Cl)nn12 [Compound 7.3, (1S,3r)-3-(((S)-1-(4-((2-chloro-7-((S)-1-methoxyethyl)-[1,2,4]triazolo[1,5-a]pyrimidin-6-yl)amino)phenyl)-2,2,2-trifluoroethyl)(methyl)carbamoyl)cyclobutane-1-carboxylic acid] | 100 to 1000 | > 1000 |
| CO[C@H](C)c1c(Nc2ccc([C@H](N(C)C(=O)C3CCS(=O)(=O)CC3)C(F)(F)F)cc2)cnc2nc(Cl)nn12 [Compound 10.1, N—((S)-1-(4-((2-chloro-7-((R)-1-methoxyethyl)-[1,2,4]triazolo[1,5-a]pyrimidin-6-yl)amino)phenyl)-2,2,2-trifluoroethyl)-N-methyltetrahydro-2H-thiopyran-4-carboxamide 1,1-dioxide] | 100 to 1000 | 100 to 1000 |
